ChEMBL document CHEMBL4804281, “STK4 inhibitors for treatment of hematologic malignancies” (2020)
Values belong to the molecule of their own block, whether it stands above or below them. Active and inactive are the calls of the source. The calls are words filed in the database; no cut-off is given here.

Experiments:
[1] = molecular target: Ribosomal protein S6 kinase alpha-4 (Homo sapiens) (UniProt O75676); assay: Inhibition of MSK2 domain 1 in human NCI-H929 cells at 10 uM by mass spectroscopic analysis relative to control; type: cell-based
[2] = molecular target: T1, Serine/threonine-protein kinase 3 (Homo sapiens) (UniProt Q13188); assay: Inhibition of MST2 in human NCI-H929 cells at 10 uM by mass spectroscopic analysis relative to control; type: cell-based
T1 sequence (whole entry): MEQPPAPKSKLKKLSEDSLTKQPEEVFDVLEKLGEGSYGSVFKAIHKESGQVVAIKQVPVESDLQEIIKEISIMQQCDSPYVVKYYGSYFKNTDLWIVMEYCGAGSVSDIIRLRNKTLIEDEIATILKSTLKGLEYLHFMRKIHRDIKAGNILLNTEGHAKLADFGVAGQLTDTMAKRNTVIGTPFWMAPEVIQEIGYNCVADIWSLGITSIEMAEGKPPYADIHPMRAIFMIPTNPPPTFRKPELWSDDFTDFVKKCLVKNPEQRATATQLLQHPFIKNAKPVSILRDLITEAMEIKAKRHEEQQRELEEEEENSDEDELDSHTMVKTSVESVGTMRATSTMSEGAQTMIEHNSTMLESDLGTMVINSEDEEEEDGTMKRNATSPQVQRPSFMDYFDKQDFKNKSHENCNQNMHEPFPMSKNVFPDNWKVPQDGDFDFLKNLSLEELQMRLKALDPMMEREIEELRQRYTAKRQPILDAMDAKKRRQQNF

[3] = molecular target: Dual specificity mitogen-activated protein kinase kinase 4 (Homo sapiens) (UniProt P45985); assay: Inhibition of MAP2K4 in human NCI-H929 cells at 10 uM by mass spectroscopic analysis relative to control; type: cell-based
[4] = molecular target: Phosphatidylinositol 5-phosphate 4-kinase type-2 alpha (Homo sapiens) (UniProt P48426); assay: Inhibition of PIP4K2A in human NCI-H929 cells at 10 uM by mass spectroscopic analysis relative to control; type: cell-based
[5] = molecular target: 1-phosphatidylinositol 3-phosphate 5-kinase (Homo sapiens) (UniProt Q9Y2I7); assay: Inhibition of PIP5K3 in human NCI-H929 cells at 10 uM by mass spectroscopic analysis relative to control; type: cell-based
[6] = molecular target: Mitogen-activated protein kinase kinase kinase 21 (Homo sapiens) (UniProt Q5TCX8); assay: Inhibition of MLK4 in human NCI-H929 cells at 10 uM by mass spectroscopic analysis relative to control; type: cell-based
MM1.S = assay: Induction of apoptosis in human MM1.S cells assessed as necrotic cells measured after 48 hrs by annevxinV/FITC-propidium iodide staining based flow cytometry (reference value: 0.19 %); type: functional
NCI-H929 = assay: Upregulation of YAP1 protein level in human NCI-H929 cells at 1 uM measured after 24 hrs by Western blot analysis; type: functional, cell-based

Chain of Mitogen-activated protein kinase kinase kinase 21 (Homo sapiens) (Q5TCX8 whole entry): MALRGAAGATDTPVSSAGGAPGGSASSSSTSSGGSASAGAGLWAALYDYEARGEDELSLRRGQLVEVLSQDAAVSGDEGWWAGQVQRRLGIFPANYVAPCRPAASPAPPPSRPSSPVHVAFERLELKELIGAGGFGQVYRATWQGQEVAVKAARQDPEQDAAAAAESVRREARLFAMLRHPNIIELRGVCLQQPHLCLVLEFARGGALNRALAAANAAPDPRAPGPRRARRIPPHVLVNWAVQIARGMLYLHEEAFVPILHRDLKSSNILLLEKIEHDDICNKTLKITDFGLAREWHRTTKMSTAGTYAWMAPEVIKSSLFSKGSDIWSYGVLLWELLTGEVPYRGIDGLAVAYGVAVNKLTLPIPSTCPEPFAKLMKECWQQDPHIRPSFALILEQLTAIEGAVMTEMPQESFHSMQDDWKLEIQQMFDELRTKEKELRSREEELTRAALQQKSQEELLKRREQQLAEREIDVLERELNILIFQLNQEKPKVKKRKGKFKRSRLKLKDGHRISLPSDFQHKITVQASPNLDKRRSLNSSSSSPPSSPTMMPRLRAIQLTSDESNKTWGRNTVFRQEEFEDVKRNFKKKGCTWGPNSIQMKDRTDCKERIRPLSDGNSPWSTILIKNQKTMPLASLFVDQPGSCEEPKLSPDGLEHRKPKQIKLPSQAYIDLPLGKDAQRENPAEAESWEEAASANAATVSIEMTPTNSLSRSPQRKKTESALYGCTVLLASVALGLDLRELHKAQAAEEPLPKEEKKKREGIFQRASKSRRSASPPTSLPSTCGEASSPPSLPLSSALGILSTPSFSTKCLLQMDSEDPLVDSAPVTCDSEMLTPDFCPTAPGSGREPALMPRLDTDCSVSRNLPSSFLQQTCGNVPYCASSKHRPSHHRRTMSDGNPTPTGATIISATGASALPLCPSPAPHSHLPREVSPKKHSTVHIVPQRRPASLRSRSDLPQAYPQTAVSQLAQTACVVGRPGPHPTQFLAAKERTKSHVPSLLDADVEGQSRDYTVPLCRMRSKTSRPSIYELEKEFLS
Chain of 1-phosphatidylinositol 3-phosphate 5-kinase (Homo sapiens) (Q9Y2I7 whole entry): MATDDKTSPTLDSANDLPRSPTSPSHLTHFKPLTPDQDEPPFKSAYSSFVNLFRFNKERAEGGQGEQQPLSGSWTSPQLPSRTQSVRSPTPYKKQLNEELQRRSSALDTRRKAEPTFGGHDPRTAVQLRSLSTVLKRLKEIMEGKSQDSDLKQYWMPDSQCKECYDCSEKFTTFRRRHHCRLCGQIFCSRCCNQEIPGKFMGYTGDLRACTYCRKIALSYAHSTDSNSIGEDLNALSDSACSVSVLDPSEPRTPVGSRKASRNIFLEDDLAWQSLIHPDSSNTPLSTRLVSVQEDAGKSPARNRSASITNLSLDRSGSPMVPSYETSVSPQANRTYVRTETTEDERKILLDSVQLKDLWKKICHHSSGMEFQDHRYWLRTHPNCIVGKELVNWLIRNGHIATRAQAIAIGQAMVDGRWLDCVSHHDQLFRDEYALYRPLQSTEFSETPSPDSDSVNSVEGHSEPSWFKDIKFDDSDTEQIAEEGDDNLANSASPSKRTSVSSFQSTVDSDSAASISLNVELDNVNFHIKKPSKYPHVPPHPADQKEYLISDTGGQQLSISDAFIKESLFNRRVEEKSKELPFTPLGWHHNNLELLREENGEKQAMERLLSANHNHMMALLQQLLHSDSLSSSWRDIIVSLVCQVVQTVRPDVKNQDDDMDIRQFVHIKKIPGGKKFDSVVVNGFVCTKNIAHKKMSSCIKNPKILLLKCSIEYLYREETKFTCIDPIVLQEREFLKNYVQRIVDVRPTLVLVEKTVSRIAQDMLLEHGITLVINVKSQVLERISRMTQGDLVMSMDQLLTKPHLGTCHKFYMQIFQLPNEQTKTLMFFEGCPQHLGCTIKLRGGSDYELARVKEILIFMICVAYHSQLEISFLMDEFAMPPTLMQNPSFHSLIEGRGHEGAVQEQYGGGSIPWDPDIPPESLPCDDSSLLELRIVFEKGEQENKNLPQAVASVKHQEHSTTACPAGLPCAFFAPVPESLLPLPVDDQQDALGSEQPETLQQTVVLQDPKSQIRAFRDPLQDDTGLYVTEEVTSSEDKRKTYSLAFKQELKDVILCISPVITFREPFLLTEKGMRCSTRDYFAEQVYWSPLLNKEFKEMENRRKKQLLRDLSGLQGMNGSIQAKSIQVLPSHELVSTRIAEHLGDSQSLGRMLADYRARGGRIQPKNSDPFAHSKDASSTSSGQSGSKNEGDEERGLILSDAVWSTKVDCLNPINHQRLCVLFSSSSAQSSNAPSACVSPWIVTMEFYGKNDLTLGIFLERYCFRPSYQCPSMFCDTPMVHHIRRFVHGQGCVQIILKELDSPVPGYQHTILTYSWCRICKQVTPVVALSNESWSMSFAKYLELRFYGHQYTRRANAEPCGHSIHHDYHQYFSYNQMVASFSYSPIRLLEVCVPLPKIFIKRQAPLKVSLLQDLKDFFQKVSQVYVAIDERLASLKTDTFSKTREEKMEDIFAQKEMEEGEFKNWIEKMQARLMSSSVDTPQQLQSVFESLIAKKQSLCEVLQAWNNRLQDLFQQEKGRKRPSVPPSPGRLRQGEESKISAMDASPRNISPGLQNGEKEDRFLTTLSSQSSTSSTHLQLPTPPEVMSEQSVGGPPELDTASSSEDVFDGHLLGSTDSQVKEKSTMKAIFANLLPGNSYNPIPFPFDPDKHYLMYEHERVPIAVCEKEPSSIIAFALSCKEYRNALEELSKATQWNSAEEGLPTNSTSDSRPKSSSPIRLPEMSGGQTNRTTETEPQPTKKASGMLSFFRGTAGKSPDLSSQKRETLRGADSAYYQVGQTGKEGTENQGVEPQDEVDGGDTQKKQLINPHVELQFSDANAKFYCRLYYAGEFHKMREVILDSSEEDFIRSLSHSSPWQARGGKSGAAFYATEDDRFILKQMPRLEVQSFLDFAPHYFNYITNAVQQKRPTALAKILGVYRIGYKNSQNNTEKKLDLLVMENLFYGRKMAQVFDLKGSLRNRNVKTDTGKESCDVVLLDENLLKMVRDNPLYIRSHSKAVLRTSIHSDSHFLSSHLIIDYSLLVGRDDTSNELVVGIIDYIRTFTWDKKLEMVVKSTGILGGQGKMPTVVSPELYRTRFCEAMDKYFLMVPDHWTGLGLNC
Chain of Phosphatidylinositol 5-phosphate 4-kinase type-2 alpha (Homo sapiens) (P48426 whole entry): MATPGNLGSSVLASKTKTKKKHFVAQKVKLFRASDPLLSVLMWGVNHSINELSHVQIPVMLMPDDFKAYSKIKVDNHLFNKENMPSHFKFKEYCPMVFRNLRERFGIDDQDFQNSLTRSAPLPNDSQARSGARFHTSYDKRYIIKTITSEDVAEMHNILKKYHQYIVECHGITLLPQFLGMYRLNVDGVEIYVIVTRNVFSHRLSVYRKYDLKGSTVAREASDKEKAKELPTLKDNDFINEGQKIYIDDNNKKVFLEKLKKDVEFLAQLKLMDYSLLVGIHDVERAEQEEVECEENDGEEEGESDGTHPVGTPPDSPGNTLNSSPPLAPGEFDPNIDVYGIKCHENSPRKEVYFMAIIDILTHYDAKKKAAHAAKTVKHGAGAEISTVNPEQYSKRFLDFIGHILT
Chain of Dual specificity mitogen-activated protein kinase kinase 4 (Homo sapiens) (P45985 whole entry): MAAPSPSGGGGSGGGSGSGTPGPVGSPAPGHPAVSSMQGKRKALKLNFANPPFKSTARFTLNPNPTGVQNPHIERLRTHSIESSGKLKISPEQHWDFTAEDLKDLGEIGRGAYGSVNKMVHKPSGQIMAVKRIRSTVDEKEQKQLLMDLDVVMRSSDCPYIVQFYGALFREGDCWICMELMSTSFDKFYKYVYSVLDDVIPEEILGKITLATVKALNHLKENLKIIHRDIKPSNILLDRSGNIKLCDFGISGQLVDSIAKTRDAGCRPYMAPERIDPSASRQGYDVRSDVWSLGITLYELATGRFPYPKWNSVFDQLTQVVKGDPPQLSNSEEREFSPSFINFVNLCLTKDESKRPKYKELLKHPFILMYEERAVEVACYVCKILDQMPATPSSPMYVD
Chain of Ribosomal protein S6 kinase alpha-4 (Homo sapiens) (O75676 whole entry, looked up, the tested form may be a part): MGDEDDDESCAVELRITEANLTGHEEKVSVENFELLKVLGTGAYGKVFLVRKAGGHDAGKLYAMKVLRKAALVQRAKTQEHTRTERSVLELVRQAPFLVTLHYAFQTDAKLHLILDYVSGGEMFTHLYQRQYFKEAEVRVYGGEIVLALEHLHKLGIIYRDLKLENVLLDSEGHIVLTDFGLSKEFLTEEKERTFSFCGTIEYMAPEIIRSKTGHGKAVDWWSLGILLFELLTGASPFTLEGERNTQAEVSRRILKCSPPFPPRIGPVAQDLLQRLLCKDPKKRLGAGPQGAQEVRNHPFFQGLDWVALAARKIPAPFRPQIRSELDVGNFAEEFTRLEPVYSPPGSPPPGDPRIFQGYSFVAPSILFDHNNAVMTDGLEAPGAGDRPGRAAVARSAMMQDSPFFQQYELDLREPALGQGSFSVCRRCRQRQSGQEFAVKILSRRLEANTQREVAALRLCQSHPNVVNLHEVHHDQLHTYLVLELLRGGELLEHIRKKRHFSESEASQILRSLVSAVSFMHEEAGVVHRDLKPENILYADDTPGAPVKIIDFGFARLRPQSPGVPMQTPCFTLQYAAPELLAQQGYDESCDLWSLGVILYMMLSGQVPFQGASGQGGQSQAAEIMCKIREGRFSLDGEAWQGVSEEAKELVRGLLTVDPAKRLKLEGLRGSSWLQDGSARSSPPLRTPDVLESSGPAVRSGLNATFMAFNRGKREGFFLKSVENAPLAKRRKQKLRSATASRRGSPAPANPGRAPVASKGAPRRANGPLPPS

inhibition [1]: > 90%
inhibition [2]: 0%
inhibition [3]: 0%
inhibition [4]: > 90%
inhibition [5]: 0%
Compound: COc1cc(NS(=O)(=O)C2CC2)ccc1-c1cnc(N)c(-c2ccc3c(c2)CCNC3=O)c1

inhibition [6]: 50%
Compound: Nc1ncc(-c2ccc(NS(=O)(=O)C3CC3)cc2OC2CCCCC2)cc1-c1ccc2c(c1)CCNC2=O

Compound: Nc1ncc(-c2cccc([N+](=O)[O-])c2F)cc1-c1ccc2c(c1)CCNC2=O
Activity (MM1.S): 29.41%
Activity (NCI-H929): Active
